The data set deals with CCRIS mutagenicity, Ames/micronucleus/aberration tests. The experiment in a line: CCRIS mutagenicity studies.
Setting [1] is: Test System: AMES SALMONELLA TYPHIMURIUM, Strain/Indicator: TA98, Metabolic Activation: HAMSTER, LIVER, S-9, AROCLOR 1254 (10%), Method: PREINCUBATION
Where [2] appears, read: Test System: AMES SALMONELLA TYPHIMURIUM, Strain/Indicator: TA98, Metabolic Activation: NONE, Method: PREINCUBATION
Where [3] appears, read: Test System: AMES SALMONELLA TYPHIMURIUM, Strain/Indicator: TA98, Metabolic Activation: RAT, LIVER, S-9, AROCLOR 1254 (10%), Method: PREINCUBATION
Where [4] appears, read: Test System: AMES SALMONELLA TYPHIMURIUM, Strain/Indicator: TA100, Metabolic Activation: HAMSTER, LIVER, S-9, AROCLOR 1254 (10%), Method: PREINCUBATION
The mark [5] stands for this setting: Test System: AMES SALMONELLA TYPHIMURIUM, Strain/Indicator: TA100, Metabolic Activation: NONE, Method: PREINCUBATION
Where [6] appears, read: Test System: AMES SALMONELLA TYPHIMURIUM, Strain/Indicator: TA100, Metabolic Activation: RAT, LIVER, S-9, AROCLOR 1254 (10%), Method: PREINCUBATION
Where [7] appears, read: Test System: AMES SALMONELLA TYPHIMURIUM, Strain/Indicator: TA1535, Metabolic Activation: HAMSTER, LIVER, S-9, AROCLOR 1254 (10%), Method: PREINCUBATION
Setting [8] is: Test System: AMES SALMONELLA TYPHIMURIUM, Strain/Indicator: TA1535, Metabolic Activation: NONE, Method: PREINCUBATION
Setting [9] is: Test System: AMES SALMONELLA TYPHIMURIUM, Strain/Indicator: TA1535, Metabolic Activation: RAT, LIVER, S-9, AROCLOR 1254 (10%), Method: PREINCUBATION
Setting [10] is: Test System: AMES SALMONELLA TYPHIMURIUM, Strain/Indicator: TA1537, Metabolic Activation: HAMSTER, LIVER, S-9, AROCLOR 1254 (10%), Method: PREINCUBATION
Setting [11] is: Test System: AMES SALMONELLA TYPHIMURIUM, Strain/Indicator: TA1537, Metabolic Activation: NONE, Method: PREINCUBATION
The mark [12] stands for this setting: Test System: AMES SALMONELLA TYPHIMURIUM, Strain/Indicator: TA1537, Metabolic Activation: RAT, LIVER, S-9, AROCLOR 1254 (10%), Method: PREINCUBATION
Setting [13] is: Test System: AMES SALMONELLA TYPHIMURIUM, Strain/Indicator: TA98, Metabolic Activation: NONE, Method: STANDARD PLATE.
Where [14] appears, read: Test System: AMES SALMONELLA TYPHIMURIUM, Strain/Indicator: TA100, Metabolic Activation: NONE, Method: STANDARD PLATE.

Here are results for 9 compounds from PubChem BioAssay AID1259407 (Chemical Carcinogenesis Research Information System (CCRIS), 2018).

Active and inactive are the calls of the source. No rule for the calls is given here.

Regarding `O=C1CCCO1`, the mutagenic call reads like this: (End Point: IN VITRO CHROMOSOMAL ABERRATIONS, Test System: CHO CELLS, Metabolic Activation: NONE) “inactive; negative”; (End Point: IN VITRO CHROMOSOMAL ABERRATIONS, Test System: CHO CELLS, Metabolic Activation: RAT, LIVER, S-9, AROCLOR 1254) “active; positive”; under setting [1], “inactive; negative”; under setting [2], “inactive; negative”; (Test System: AMES SALMONELLA TYPHIMURIUM, Strain/Indicator: TA98, Metabolic Activation: RAT LIVER S-9, PHENOBARBITAL AND BETA-NAPHTHOFLAVONE, Method: PREINCUBATION) “inactive; negative”; under setting [3], “inactive; negative”. The mutagenic call is “inactive; negative” (Test System: AMES SALMONELLA TYPHIMURIUM, Strain/Indicator: TA98, Metabolic Activation: RAT, LIVER, S-9, AROCLOR 1254, Method: PREINCUBATION); “inactive; negative” under setting [4]; “inactive; negative” under setting [5]; “inactive; negative” (Test System: AMES SALMONELLA TYPHIMURIUM, Strain/Indicator: TA100, Metabolic Activation: RAT LIVER S-9, PHENOBARBITAL AND BETA-NAPHTHOFLAVONE, Method: PREINCUBATION); “inactive; negative” under setting [6]; “inactive; negative” (Test System: AMES SALMONELLA TYPHIMURIUM, Strain/Indicator: TA100, Metabolic Activation: RAT, LIVER, S-9, AROCLOR 1254, Method: PREINCUBATION). Besides, the mutagenic call reads like this: (Test System: AMES SALMONELLA TYPHIMURIUM, Strain/Indicator: TA102, Metabolic Activation: NONE, Method: PREINCUBATION) “inactive; negative”; (Test System: AMES SALMONELLA TYPHIMURIUM, Strain/Indicator: TA102, Metabolic Activation: RAT LIVER S-9, PHENOBARBITAL AND BETA-NAPHTHOFLAVONE, Method: PREINCUBATION) “inactive; negative”; (Test System: AMES SALMONELLA TYPHIMURIUM, Strain/Indicator: TA102, Metabolic Activation: RAT, LIVER, S-9, AROCLOR 1254, Method: PREINCUBATION) “inactive; negative”; (Test System: AMES SALMONELLA TYPHIMURIUM, Strain/Indicator: TA104, Metabolic Activation: NONE, Method: PREINCUBATION) “inactive; negative”; (Test System: AMES SALMONELLA TYPHIMURIUM, Strain/Indicator: TA104, Metabolic Activation: RAT LIVER S-9, PHENOBARBITAL AND BETA-NAPHTHOFLAVONE, Method: PREINCUBATION) “inactive; negative”; under setting [7], “inactive; negative”. Moreover, the mutagenic call runs as follows: under setting [8], “inactive; negative”; (Test System: AMES SALMONELLA TYPHIMURIUM, Strain/Indicator: TA1535, Metabolic Activation: RAT LIVER S-9, PHENOBARBITAL AND BETA-NAPHTHOFLAVONE, Method: PREINCUBATION) “inactive; negative”; under setting [9], “inactive; negative”; under setting [10], “inactive; negative”; under setting [11], “inactive; negative”; (Test System: AMES SALMONELLA TYPHIMURIUM, Strain/Indicator: TA1537, Metabolic Activation: RAT LIVER S-9, PHENOBARBITAL AND BETA-NAPHTHOFLAVONE, Method: PREINCUBATION) “inactive; negative”. For the same compound, the mutagenic call reads like this: under setting [12], “inactive; negative”; (Test System: E.COLI, Strain/Indicator: WP2UVRA, Metabolic Activation: NONE, Method: PREINCUBATION) “inactive; negative”; (Test System: E.COLI, Strain/Indicator: WP2UVRA, Metabolic Activation: RAT LIVER S-9, PHENOBARBITAL AND BETA-NAPHTHOFLAVONE, Method: PREINCUBATION) “inactive; negative”; (Test System: E.COLI, Strain/Indicator: WP2UVRA\PKM101, Metabolic Activation: NONE, Method: PREINCUBATION) “inactive; negative”; (Test System: E.COLI, Strain/Indicator: WP2UVRA\PKM101, Metabolic Activation: RAT LIVER S-9, PHENOBARBITAL AND BETA-NAPHTHOFLAVONE, Method: PREINCUBATION) “inactive; negative”.

For the compound `c1ccc2c(c1)-c1cc3ccccc3cc1[C@H]1O[C@@H]21`, the mutagenic call is, setting by setting: under setting [2], “active; positive”; under setting [13], “active; positive”; under setting [14], “active; positive”; (Test System: CHINESE HAMSTER V-79, Strain/Indicator: V-79/8-AZAGUANINE, Metabolic Activation: NONE, Method: STANDARD PLATE) “active; positive”; (Test System: UDS HUMAN FIBROBLASTS, Strain/Indicator: THY INCORP (NON-S-PHASE), Metabolic Activation: NONE, Method: AUTORADIOGRAPHY) “active; positive”.

As for `COC(=O)[C@H]1CS[C@H]2C(Cl)=C(Cl)C(=O)N12`, the mutagenic call under setting [14] was “active; positive”.

With `Cc1ccc2cc([N+](=O)[O-])ccc2c1`, under setting [2], the mutagenic call was “active; positive”.

Take `Cc1cc(N)c(C)c2c1[nH]c1ccccc12`: the mutagenic call runs as follows: under setting [13], “inactive; negative”; (Test System: AMES SALMONELLA TYPHIMURIUM, Strain/Indicator: TA98, Metabolic Activation: RAT LIVER S-9, AROCLOR 1254, Method: STANDARD PLATE) “active; positive”; under setting [14], “inactive; negative”; (Test System: AMES SALMONELLA TYPHIMURIUM, Strain/Indicator: TA100, Metabolic Activation: RAT LIVER S-9, AROCLOR 1254, Method: STANDARD PLATE) “inactive; negative”.

For the compound `[Cl][Sb]([Cl])([Cl])([Cl])[Cl]`, the mutagenic call under setting [2] is “inactive; negative”; the mutagenic call (Test System: AMES SALMONELLA TYPHIMURIUM, Strain/Indicator: TA98, Metabolic Activation: RAT, LIVER, S-9 (10%), Method: PREINCUBATION) was “inactive; negative”; the mutagenic call under setting [5] was “inactive; negative”; the mutagenic call (Test System: AMES SALMONELLA TYPHIMURIUM, Strain/Indicator: TA100, Metabolic Activation: RAT, LIVER, S-9 (10%), Method: PREINCUBATION) is “inactive; negative”.

For `Cc1ccc2c(C)c3ccc4c(c3nc2c1)C=C[C@H](O)[C@H]4O`, for the setting “Test System: AMES SALMONELLA TYPHIMURIUM, Strain/Indicator: TA100, Metabolic Activation: RAT, LIVER, S-9, AROCLOR 1254, Method: STANDARD PLATE”, the mutagenic call was “active; positive”.

`CCCCCC(N)=O`: the mutagenic call is, setting by setting: under setting [1], “inactive; negative”; under setting [2], “inactive; negative”; under setting [3], “inactive; negative”; under setting [4], “inactive; negative”; under setting [5], “inactive; negative”; under setting [6], “inactive; negative”. Moreover, the mutagenic call was “inactive; negative” under setting [7]; “inactive; negative” under setting [8]; “inactive; negative” under setting [9]; “inactive; negative” under setting [10]; “inactive; negative” under setting [11]; “inactive; negative” under setting [12].

Consider `O[C@H]1[C@@H]2O[C@@H]2C=C[C@@H]1O`, for which the mutagenic call by setting is: under setting [2], “inactive; negative”; under setting [5], “inactive; negative”; under setting [8], “active; positive”.
